Source: PubChem BioAssay (NCI)
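Where inhibition never reached the appropriate level, the endpoint shown equals the highest concentration tested. Otherwise, values were interpolated linearly from a five-concentration, 48-hour dose response in 96-well plates. GI50: concentration for 50% inhibition of growth. TGI marks complete inhibition of growth.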

Experiments:
Experiment in all cases: NCI-60 cell line screen, 48 h
[1] = tested on: CCRF-CEM leukemia
[2] = tested on: UO-31 renal
[3] = tested on: SNB-19 CNS
[4] = tested on: OVCAR-3 ovarian
[5] = tested on: IGROV1 ovarian
[6] = tested on: SK-MEL-5 melanoma
[7] = tested on: SR leukemia
[8] = tested on: MDA-MB-231 breast
[9] = tested on: SF-268 CNS
[10] = tested on: NCI-H226 lung

Row | Structure (SMILES) | TGI [1] | TGI [2] | TGI [3] | TGI [4] | TGI [5] | TGI [6] | TGI [7] | TGI [8] | TGI [9] | GI50 [1] | GI50 [2] | GI50 [3] | GI50 [4] | GI50 [6] | GI50 [7] | GI50 [8] | TGI [10]
1 | ClCCN1CCC2(CC1)SSC1(CCN(CCCl)CC1)S2 | 55.6 µM | > 100 µM | > 100 µM | 63.3 µM | > 100 µM | > 100 µM | > 100 µM | > 100 µM | 30.9 µM |  |  |  |  |  |  |  | 
2 | COc1cc(C2c3cc4c(cc3OC(N3CCOCC3)C2C)OCO4)ccc1O (stereo not given) | > 91.8 µM | > 92.8 µM | > 100 µM | 45.1 µM | > 100 µM | > 80.4 µM | > 68.9 µM |  | > 100 µM |  |  |  |  |  |  |  | 
3 | CC1CCC(n2c3cnccc3c3cnc(Nc4ccc5c(n4)CCN(C(=O)CO)C5)nc32)CC1 (stereo not given) | > 100 µM | > 100 µM | > 100 µM | > 100 µM |  | > 100 µM | > 100 µM | > 100 µM |  | 0.448 µM | 0.263 µM | 0.845 µM | > 100 µM | 0.792 µM | 0.239 µM | 1.38 µM | 
4 | O=C1c2ccccc2-c2c1c1ccccc1c(=O)n2CCNCCNCCNCCn1c2c(c3ccccc3c1=O)C(=O)c1ccccc1-2 |  | 2.64 µM | > 100 µM | 4.91 µM |  |  |  | 1.01 µM |  |  | 1.12 µM | 2.35 µM | 1.16 µM |  |  | 0.136 µM | 
5 | CCOC(=O)CSc1c(C(=O)OCC)c(=O)n(-c2ccccc2)c(=S)n1-c1ccccc1 | > 100 µM | > 100 µM | > 100 µM | > 100 µM | > 100 µM | > 100 µM | > 100 µM |  | > 100 µM |  |  |  |  |  |  |  | > 100 µM
6 | COc1cc(Br)cc2cc(-c3cn4ccsc4n3)c(=O)oc12 | > 100 µM | > 100 µM | > 100 µM | > 100 µM | > 100 µM | 49.9 µM | > 100 µM | 80.9 µM | > 100 µM |  |  |  |  |  |  |  | 
7 | O=C1CCCc2cc3c(cc21)CC1(Cc2ccccc2C1)C3 |  |  |  | 6.1 µM | > 100 µM | 16.2 µM |  | 46.6 µM |  |  |  |  |  |  |  |  | 12.8 µM
8 | CC(=O)OC1CC(OC2C(O)CC(OC3C(O)CC(OC4CCC5(C)C(CCC6C5CC(O)C5(C)C(C7=CC(=O)OC7)CCC65O)C4)OC3C)OC2C)OC(C)C1OC1OC(CO)C(O)C(O)C1O (stereo not given) |  | 0.179 µM | 0.957 µM | 0.15 µM | 1.11 µM | 0.161 µM |  | 2.41 µM | 0.185 µM |  |  |  |  |  |  |  | 0.606 µM
9 | CC(=O)NC(Cc1ccc(O)cc1)C(=O)O (stereo not given) |  | > 100 µM | > 100 µM | > 100 µM | > 100 µM | > 100 µM |  | > 100 µM | > 100 µM |  |  |  |  |  |  |  | > 100 µM
10 | CC[C@@H]1CC[C@@H]2[C@H](CC[C@]3(C)[C@@H](OC(C)=O)CC[C@@H]23)[C@H]1COC(C)=O | 41.2 µM | > 100 µM | > 100 µM | 34.6 µM | > 100 µM | 32.7 µM |  | 56.6 µM | 92.5 µM |  |  |  |  |  |  |  | 52.5 µM
11 | COC(=O)C1SC(SC)=NC12c1ccccc1Nc1ccccc12 (stereo not given) | > 100 µM | > 100 µM | > 100 µM | 45.8 µM | > 100 µM | 31 µM | 53.4 µM |  | > 100 µM |  |  |  |  |  |  |  | > 100 µM
12 | CC(C)CCS(=O)(=O)OCCCCOS(=O)(=O)CCC(C)C | > 100 µM | > 100 µM | > 100 µM | 29.9 µM | > 100 µM |  | > 100 µM |  | > 100 µM |  |  |  |  |  |  |  | > 100 µM
13 | CC(C)(C)N1CSC(=S)N(Cc2ccco2)C1 | 4.03 µM | 6.14 µM | 14.5 µM | 4.94 µM | 12.6 µM | 14 µM | 3.55 µM |  | 15.1 µM |  |  |  |  |  |  |  | 41.4 µM
14 | O=C(N/N=C(/COc1ccc(Cl)cc1)N=Cc1ccncc1)c1ccncc1 | > 100 µM |  | > 100 µM | > 100 µM | > 100 µM |  |  | > 100 µM | > 100 µM |  |  |  |  |  |  |  | > 100 µM
15 | N#Cc1c(-c2ccccc2)/c(=C\Nc2cccc(C(F)(F)F)c2)c(=O)n2c1nc1ccccc12 | > 100 µM | 22.1 µM | > 100 µM |  | > 100 µM | > 100 µM |  | > 100 µM | > 100 µM |  |  |  |  |  |  |  | 80.9 µM
16 | COc1cc2nc3n(c(=O)c2cc1OC)-c1ccc([N+](=O)[O-])cc1C3=O |  | 35 µM | > 100 µM | > 100 µM | > 100 µM | > 100 µM |  | > 100 µM | > 100 µM |  |  |  |  |  |  |  | > 100 µM
17 | C=C(C)C(=O)OC1C/C(CO)=C\C(O)C/C(C)=C/C2OC(=O)C(=C)C21 (stereo not given) | 36.6 µM | > 100 µM | > 100 µM | 59.4 µM | > 100 µM | 44.1 µM | 50.5 µM |  | 57.8 µM |  |  |  |  |  |  |  | 79.5 µM
